Results on 24 compounds are retold here after patent publication US20110269763A1, “CRTH2 receptor ligands for medicinal uses” (7TM Pharma A/S, priority 2004, published 2011).

The target of test [1] is T1, human CRTH2 (Homo sapiens, UniProt Q9Y5Y4, V204A).
T1 sequence (Q9Y5Y4 1-395 V204A): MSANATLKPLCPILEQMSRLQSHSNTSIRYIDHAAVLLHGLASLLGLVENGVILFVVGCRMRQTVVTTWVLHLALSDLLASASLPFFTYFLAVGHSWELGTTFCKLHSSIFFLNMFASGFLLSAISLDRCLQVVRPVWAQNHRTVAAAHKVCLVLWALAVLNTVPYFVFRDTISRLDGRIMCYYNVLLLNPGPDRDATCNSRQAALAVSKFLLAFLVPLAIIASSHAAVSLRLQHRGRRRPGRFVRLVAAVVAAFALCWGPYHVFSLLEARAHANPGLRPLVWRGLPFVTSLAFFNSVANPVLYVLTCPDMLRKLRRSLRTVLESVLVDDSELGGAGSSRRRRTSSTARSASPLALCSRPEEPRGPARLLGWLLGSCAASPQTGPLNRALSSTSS
Briefly: Receptor binding assay: [3H]PGD2 competition binding on whole COS-7 cells transiently transfected with CRTH2 (also stable HEK293 cells). Further details: expressed in transfected cells; host or cells: COS-7 (transient, calcium phosphate). From the text:
(§1) Generation/origin of the cDNA Constructs. The coding sequence of the human CRTH2 receptor (genbank accession no NM_004778) was amplified by PCR from a human hippocampus cDNA library and inserted into the pcDNA3.1(+) expression vector (invitrogen) via 5′ HindIII and 3′ EcoRI. To generate a CRTH2-Renilla luciferase (CRTH2-Rluc) fusion protein, the CRTH2 coding sequence without a STOP codon and Rluc were amplified, fused in frame by PCR and subcloned into the pcDNA3.1(+)Zeo expression vector (invitrogen). Human β-arrestin2 (β-arr2) N-terminally tagged with GFP^2 (βarr2-GFP^2) and Renilla luciferase were purchased from BioSignal Packard Inc, (Montreal, Canada). The sequence identity of the construct was verified by restriction endonuclease digests and sequencing in both directions on an ABI Prism (Applied Biosystems, Foster City, Calif.).
(§2) Cell Culture and Transfection. COS-7 cells were grown in Dulbecco's modified Eagle's medium (DMEM) 1885 supplemented with 10% fetal bovine serum, 100 units/ml penicillin, […] streptomycin, and kept at 37° C. in a 10% CO2 atmosphere. HEK293 cells were maintained in Minimum Essential medium (MEM) supplemented with 10% (v/v) heat inactivated fetal calf serum (HIFCS), 2 mM Glutamax™-I, 1% non essential amino acids (NEAA), 1% sodium pyruvate and 10 μg/ml gentamicin. For binding experiments, COS7 cells were transiently transfected with the CRTH2 receptor using a calcium phosphate-DNA coprecipitation method with the addition of chloroquine (as described by Holst et al., 2001↓). To perform the functional Bioluminescence Resonance Energy Transfer (BRET) assays, a HEK293 cell clone stably expressing βarr2-GFP^2 and CRTH2-Rluc was generated (CRTH2-HEK293 cells).
Binding assay. 24 h after transfection COS-7 cells were seeded into 96 well plates at a density of 30.000 cells/well. Competition binding experiments on whole cells were then performed about 18-24 h later using 0.1 nM [^3H]PGD2 (NEN, 172 Ci/mmol) in a binding buffer consisting of HBSS (GIBCO) and 10 mM HEPES. Competing ligands were diluted in DMSO which was kept constant at 1% (v/v) of the final incubation volume. Total and nonspecific binding were determined in the absence and presence of 10 μM PGD2. Binding reactions were routinely conducted for 3 h at 4° C. and terminated by 2 washes (100 μl each) with ice cold binding buffer. Radioactivity was determined by liquid scintillation counting in a TOPCOUNTER (Packard) following over night incubation in Microscint 20. Stable HEK293 cells were seeded at a density of 30.000 cells/well 18-24 h prior to the binding assay which was performed essentially as described for COS7 cells above. Determinations were made in duplicates.
(§3) Curve analysis was performed with the GraphPadPrism software 3.0 (Graphpad Prism Inc., San Diego, USA) and IC50 values were calculated as a measure of the antagonistic potencies.

For test [2], the target named is T1, human CRTH2. Briefly: Functional antagonist BRET assay on HEK293 cells stably expressing human CRTH2-Rluc and GFP2-β-arr2. To be noted: read-out: Antag. IC50. The class given is cell-based. Further details: expressed in transfected cells.
From the text: as §1, §2
BRET assay. Functional BRET assays were performed on HEK293 cells stably expressing human CRTH2-Rluc and GFP^2-β-arr2. Prior to their use in the BRET assay cells were detached and re-suspended in D-PBS with 1000 mg/L L-Glucose at a density of 2×10^6 cells/mL. DeepBlueC™ was diluted to 50 μM in D-PBS with 1000 mg/L L-Glucose (light sensitive). 100 μL of cell suspension was transferred to wells in a 96-well microplate (white OptiPlate) and placed in the Mithras LB 940 instrument (BERTHOLD TECHNOLOGIES, Bad Wildbad, Germany). 12 μL/well agonist was then injected by injector 1 and 10 μL/well DeepBlueC™ was injected simultaneously by injector 2. Five seconds after the injections the light output from the well was measured sequentially at 400 nm and 515 nm, and the BRET signal (mBRET ratio) was calculated by the ratio of the fluorescence emitted by GFP^2-β-arr2 (515 nm) over the light emitted by the receptor-Rluc (400 nm). Antagonists were added before placing the microplates into the Mithras LB 940 and allowed to incubate for 15 minutes prior to the addition of agonist and DeepBlueC™. Compounds were dissolved in DMSO and the final DMSO concentration was kept constant at 1% in the assay.
as §3

Setting [3] is: competition with 0.1 nM [3H]PGD2, whole cells, 3 h at 4° C.
Where [4] appears, read: BRET, antagonist incubated 15 minutes prior to agonist.
Setting [5] is: receptor binding assay, Table 3.
[6] abbreviates: functional antagonist assay, Table 3.

Where only a bound is given, the exact number is not on record here.

For the compound `O=C(O)COc1ccc(-c2ccccc2)cc1C(=O)c1cnn(-c2ccccc2)c1` [D5, 3-(1-Phenyl-1H-pyrazole-4-carbonyl)biphenyl-4-yloxyacetic acid], the IC50 on human CRTH2 [1] (setting [3]) and at human CRTH2 [2] (setting [4]) was below 500 nM in each case.
On to `O=C(O)COc1ccc(Br)cc1-c1nc(Cc2ccc(Cl)cc2)no1` [D114, {4-Bromo-2-[3-(4-chloro-benzyl)-[1,2,4]oxadiazol-5-yl]-phenoxy}-acetic acid], for which the IC50 at human CRTH2 [1] (setting [5]) and at human CRTH2 [2] (setting [6]) was below 500 nM in each case.
In the case of `O=C(O)COc1ccc(Br)cc1C(=O)c1cnn(-c2c(Cl)cccc2Cl)c1` [D29, 4-Bromo-2-[1-(2,6-dichlorophenyl)-1H-pyrazole-4-carbonyl]phenoxyacetic acid], the concentration for half-maximal inhibition (IC50) on human CRTH2 [1] (setting [3]) and on human CRTH2 [2] (setting [4]) was below 500 nM in each case.
On to `O=C(O)COc1ccc(Br)cc1C(=O)c1cnn(-c2ccccc2Br)c1` [D21, 4-Bromo-2-[1-(2-bromophenyl)-1H-pyrazole-4-carbonyl]phenoxyacetic acid], for which the IC50 at human CRTH2 [1] (setting [3]) and on human CRTH2 [2] (setting [4]) was below 500 nM in each case.
As to `Cc1cc(Cl)ccc1-n1cc(C(=O)c2cc(Br)ccc2OC(C)C(=O)O)cn1` (stereo not drawn) [D62, 2-{4-Bromo-2-[1-(4-chloro-2-methylphenyl)-1H-pyrazole-4-carbonyl]phenoxy}propionic acid], the 50% inhibitory concentration (IC50) at human CRTH2 [1] (setting [3]) and at human CRTH2 [2] (setting [4]) was below 500 nM throughout.
For the compound `O=C(O)COc1ccc(Br)cc1-c1nc(-c2ccc(Oc3ccccc3)cc2)no1` [D111, {4-Bromo-2-[3-(4-phenoxy-phenyl)-[1,2,4]oxadiazol-5-yl]-phenoxy}-acetic acid], the half-inhibitory concentration (IC50) on human CRTH2 [1] (setting [5]) and on human CRTH2 [2] (setting [6]) was below 500 nM throughout.
For `O=C(O)COc1ccc(Br)cc1C(=O)c1cnn(-c2ccccc2Oc2ccccc2)c1` [D43, {4-Bromo-2-[1-(2-phenoxyphenyl)-1H-pyrazole-4-carbonyl]phenoxy}acetic acid], the IC50 on human CRTH2 [1] (setting [3]) and on human CRTH2 [2] (setting [4]) was below 500 nM throughout.
`O=C(O)COc1ccc(Br)cc1-c1nc(Cc2ccccc2Cl)no1` [D120, {4-Bromo-2-[3-(2-chloro-benzyl)-[1,2,4]oxadiazol-5-yl]-phenoxy}-acetic acid]: the concentration for half-maximal inhibition (IC50) on human CRTH2 [1] (setting [5]) and at human CRTH2 [2] (setting [6]) was below 500 nM each time.
`COc1ccccc1-n1cc(C(=O)c2cc(Br)ccc2OC(C)C(=O)O)cn1` (stereo not drawn) [D65, 2-{4-Bromo-2-[1-(2-methoxyphenyl)-1H-pyrazole-4-carbonyl]phenoxy}propionic acid]: the IC50 on human CRTH2 [1] (setting [3]) and on human CRTH2 [2] (setting [4]) was below 500 nM throughout.
Regarding `O=C(O)COc1ccc(Br)cc1-c1nc(Cc2ccc(Cl)c(Cl)c2)no1` [D123, {4-Bromo-2-[3-(3,4-dichlorobenzyl)-[1,2,4]oxadiazol-5-yl]-phenoxy}acetic acid], the half-maximal inhibitory concentration (IC50) at human CRTH2 [1] (setting [5]) and on human CRTH2 [2] (setting [6]) was below 500 nM each time.
With `Cc1cc(Cl)ccc1-n1cc(C(=O)c2cc(Br)ccc2OCC(=O)O)cn1` [D58, {4-Bromo-2-[1-(4-chloro-2-methylphenyl)-1H-pyrazole-4-carbonyl]phenoxy}acetic acid], the IC50 at human CRTH2 [1] (setting [3]) and at human CRTH2 [2] (setting [4]) was below 500 nM each time.
As to `O=C(O)COc1ccc(Br)cc1C(=O)c1cnn(-c2ccc(Cl)cc2Cl)c1` [D26, 4-Bromo-2-[1-(2,4-dichlorophenyl)-1H-pyrazole-4-carbonyl]phenoxyacetic acid], the IC50 on human CRTH2 [1] (setting [3]) and on human CRTH2 [2] (setting [4]) was below 500 nM throughout.
Turning to `O=C(O)COc1ccc(Br)cc1C(=O)c1cnn(-c2cccc(Br)c2)c1` [D24, 4-Bromo-2-[1-(3-bromophenyl)-1H-pyrazole-4-carbonyl]phenoxyacetic acid], the concentration for half-maximal inhibition (IC50) at human CRTH2 [1] (setting [3]) and on human CRTH2 [2] (setting [4]) was below 500 nM throughout.
In the case of `CCc1ccccc1-n1cc(C(=O)c2cc(Br)ccc2OCC(=O)O)cn1` [D18, 4-Bromo-2-[1-(2-ethylphenyl)-1H-pyrazole-4-carbonyl]phenoxyacetic acid], the IC50 at human CRTH2 [1] (setting [3]) and on human CRTH2 [2] (setting [4]) was below 500 nM each time.
In the case of `Cc1ccc(-n2cc(C(=O)c3cc(Br)ccc3OCC(=O)O)cn2)c(Br)c1` [D45, {4-Bromo-2-[1-(2-bromo-4-methylphenyl)-1H-pyrazole-4-carbonyl]phenoxy}acetic acid], the IC50 at human CRTH2 [1] (setting [3]) and on human CRTH2 [2] (setting [4]) was below 500 nM in each case.
Regarding `O=C(O)COc1ccccc1C(=O)c1cnn(-c2ccccc2)c1` [D2, 2-(1-Phenyl-1H-pyrazole-4-carbonyl)phenoxyacetic acid], the values for the IC50 at human CRTH2 [1] (setting [3]) and at human CRTH2 [2] (setting [4]) were below 500 nM and 500 to 5000 nM, respectively.
For `CC(C)c1ccc(OCC(=O)O)c(C(=O)c2cnn(-c3ccccc3Cl)c2)c1` [D31, 2-[1-(2-Chlorophenyl)-1H-pyrazole-4-carbonyl]-4-isopropylphenoxyacetic acid], in that order: below 500 nM and below 500 nM.
For `COc1ccc(-c2cnnc(NN=Cc3ccccc3OCC(=O)O)n2)cc1` [D153], in that order: 500 to 5000 nM and above 5000 nM.
Turning to `O=C(O)COc1ccc(Br)cc1CN1CC(=O)N(Cc2ccc(Cl)cc2)C1=O` [D139, 4-Bromo-2-[3-(4-chlorobenzyl)-2,4-dioxoimidazolidin-1-ylmethyl]phenoxyacetic acid], the IC50 at human CRTH2 [1] (setting [3]) and on human CRTH2 [2] (setting [4]) was below 500 nM in each case.
`CSc1ccccc1-n1cc(C(=O)c2cc(Br)ccc2OC(C)C(=O)O)cn1` (stereo not drawn) [D49, 2-{4-Bromo-2-[1-(2-methylthio)-1H-pyrazole-4-carbonyl]phenoxy}propionic acid]: the half-inhibitory concentration (IC50) at human CRTH2 [1] (setting [3]) and on human CRTH2 [2] (setting [4]) was below 500 nM throughout.
As for `O=C(O)COc1ccc(Br)cc1C(=O)c1cnn(-c2ccc(Br)cc2Cl)c1` [D34, 4-Bromo-2-[1-(4-bromo-2-chlorophenyl)-1H-pyrazole-4-carbonyl]phenoxyacetic acid], the IC50 at human CRTH2 [1] (setting [3]) and at human CRTH2 [2] (setting [4]) was below 500 nM in each case.
Take `O=C(O)COc1ccccc1C=NNC(=O)c1ccc2ccccc2c1O` [D154]: the half-inhibitory concentration (IC50) on human CRTH2 [1] (setting [3]) and on human CRTH2 [2] (setting [4]) was below 500 nM in each case.
As to `O=C(O)COc1ccc(Br)cc1-c1nc(Cc2ccc(OC(F)(F)F)cc2)no1` [D113, {4-Bromo-2-[3-(4-trifluoromethoxy-benzyl)-[1,2,4]oxadiazol-5-yl]-phenoxy}-acetic acid], the IC50 at human CRTH2 [1] (setting [5]) and on human CRTH2 [2] (setting [6]) was below 500 nM throughout.
With `O=C(O)COc1ccc(Br)cc1-c1noc(-c2cccc(Cl)c2)n1` [D136, {4-Bromo-2-[5-(3-chlorophenyl)-[1,2,4]oxadiazol-3-yl]phenoxy}acetic acid], the 50% inhibitory concentration (IC50) at human CRTH2 [1] (setting [3]) and at human CRTH2 [2] (setting [4]) was below 500 nM each time.
